Laboratory results as given in article PMC6789782, “Safety Pharmacological Evaluation of the Coffee Component, Caffeoylquinic Acid, and Its Metabolites, Using Ex Vivo and In Vitro Profiling Assays” (Pharmaceuticals, 2019).

Experiments:
[1] = system: rat hippocampal slices; test: Electrophysiological assay of hippocampal slices, epileptiform discharge (ED) recording; conditions: ± SEM
Description: A hippocampal slice was placed on the multielectrode array (200 μm distant electrodes) to ensure the multi-electrode grid covered the major surface of the slice. […]
ED frequency (in Hz) was determined as follows: raw data were filtered with a Low Pass filter (Butterworth second order filter) set to 20 Hz. ED number was monitored on-line (epileptiform event amplitudes had to be higher than 15 μV to be counted; a dead time of 200 ms was applied for each epileptiform event detected). ED frequency was averaged using 30-s time intervals. Results are presented as mean frequency of ED for the last 2 min of each condition (± SEM).

[2] = system: isolated perfused guinea pig heart; test: Langendorff perfused heart assay
Description: After injection of heparin sodium (100 unit/body, AY Pharmaceuticals Co., Ltd.) into the jugular vein, the animals were exsanguinated. […] A stainless-steel cannula was inserted in the aorta, followed by attachment to the Langendorff apparatus (Physio-Tech Co., Ltd., Tokyo, Japan). The attached heart was perfused with KH solution at 37.0 ± 0.2 °C. Before use, the KH solution was aerated by a gas mixture (95%O2 + 5%CO2) for 30 min or longer. The perfusion pressure was maintained at 70 mmHg.
DMSO solutions at 1, 10, and 100 mM were diluted 1000-fold with the KH solution to make test solutions of 1, 10, and 100 μM, respectively. The test solutions were cumulatively applied at a flow rate of 20 mL/min for 10 min with each concentration.
An ECG signal was recorded using electrodes fixed on the ventricular apex (+), and a stainless-steel cannula was inserted in the aorta (−), and LVP was recorded from the balloon catheter placed in the left ventricle. The ECG signals were amplified with an amplifier (DAM50; World Precision Instruments, Inc.) and LVPs were monitored with a Pressure Monitor 4 (Living Systems Instrumentation). Both of the waveforms were recorded with computer software (1000 Hz; iox2 and ecgAUTO3; emka Technologies).
Before measurement, the in-balloon pressure was adjusted so that the diastolic blood pressure would be in the range of 0 to 10 mmHg. The cardiac parameters, such as HR, PR interval, QRS duration, QT interval, QTc interval (Fridericia’s formula: QTc = QT/RR^1/3), LVPSP, left-ventricular end diastolic pressure (LVEDP), and LV dP/dt max, were measured.
Data are expressed as mean (± SD). The measured % changes from the pre-application value were used for analyses. Williams test was carried out between the solvent-control and test compound. Student’s t-test was carried out between the solvent-control and positive-control. […] The data from the solvent control and drug groups were tested by F test for homogeneity of variance. F test was performed at the significance level of 5%. When the variances were homogeneous, Student’s t-test was subsequently performed. When the variances were nonhomogeneous, Welch t-test was selected.

[3] = cited from earlier work
[4] = system: rat hippocampal slices; test: Electrophysiological assay of hippocampal slices, population spike (PS) recording
Description: All animals were housed and used in accordance with the French and European legislations for animal care. Rats (Janvier Labs, Le Genest-Saint-Isle, France) were euthanized by fast decapitation, without prior anesthesia. The brain was quickly removed and soaked in ice-cold oxygenated buffer containing KCl 2 mM, NaH2PO4 1.2 mM, MgCl2 7 mM, CaCl2 0.5 mM, NaHCO3 26 mM, glucose 11 mM, and sucrose 250 mM. […] During the experiments, slices were perfused with oxygenated artificial cerebrospinal fluid at 37 °C at a rate of 3 mL/min. The tested slice numbers were > 2 for 100 µM, > 4 for 10 µM, and > 6 for 1 µM (follow-up study). All experiments were carried out with 3-dimensional multielectrode array (Qwane Biosciences S.A., Lausanne, Switzerland) and data were recorded with a commercially available multielectrode array set-up from MultiChannel Systems (MCS GmbH, Reutlingen, Germany).
A hippocampal slice was placed on the multielectrode array (100 μm distant electrodes). One electrode was chosen to stimulate schaffer collaterals (SC) at the CA1 border. The stimulus in a monopolar biphasic current pulse (−300 μA for 60 μs followed by +300 μA for 60 μs) was applied at 30-s intervals. An Input/Output (I/O) curve was derived before each experiment to determine the stimulation intensity. Basal stimulation intensity was then set to 100 μA higher than the minimal intensity necessary to induce PS in the pyramidal cell layer.
Then, 1 μM bicuculline, the antagonist of GABAA, was applied in the continuous presence of the compound for an additional 40-min. Control bicuculline slices were recorded in parallel and after 50 min of control recording, 1 μM bicuculline was applied for a 40-min period.
Normalized PS AUC was averaged by slices for each experiment carried out in the same conditions. PS AUC (± SEM) is expressed as a function of time. The number of PS oscillations induced at the end of the bicuculline-exposure period was determined for each electrode and averaged by slices. The results are presented as mean of the last 2 min of application. Statistical significance was measured using two-way ANOVA analysis with Sidak’s multiple comparisons test, except for the 100 µM concentration because of its small slice number.

[5] = system: peristaltic movement; parameters: method as in earlier work; conditions: ref review reports on the Pharmaceuticals and Medical Devices Agency website; cited from earlier work
[6] = laboratory background data of drugs, n = 3
[7] = within the existing concentration range of each drug, laboratory background data

SMILES | Lowest concentration indicating statistically significant % change to solvent control, HR [2, 6] | Lowest concentration indicating statistically significant % change to solvent control, LV dP/dtmax [2, 6] | Lowest concentration indicating statistically significant % change to solvent control, LVPSP [2, 6] | Lowest concentration indicating statistically significant % change to solvent control, PR [2, 6] | Lowest concentration indicating statistically significant % change to solvent control, QRS [2, 6] | Maximum % change in LV dP/dt max [2, 7] | Lowest concentration indicating statistically significant % change to solvent control, QT [2, 6] | Lowest concentration indicating statistically significant % change to solvent control, QTc [2, 6] | EfTPC (effective free therapeutic plasma concentration) [3] | further results
Nc1ccncc1 [4-AP, 4-aminopyridine, reference compound] | – | – | – | – | – | – | – | – | – | ED rate ([1]; 4-AP control slices (4-AP alone)): 0.38 ± 0.02 Hz; ED rate ([1]; follow-up test, 4-AP control slices): 0.38 ± 0.04 Hz
CN1CCc2cc3c(cc2[C@H]1[C@@H]1OC(=O)c2c1ccc1c2OCO1)OCO3 [bicuculline, reference compound] | – | – | – | – | – | – | – | – | – | Additional spike number ([4]; 1 μM alone, single stimulation, control slices): 1.32 ± 0.32; Additional spike number ([4]; follow-up test, 1 μM bicuculline control slices): 1.47 ± 0.18
Nc1nnc(-c2cccc(Cl)c2Cl)c(N)n1 [Lamotrigine] | – | – | – | – | – | – | – | – | – | Concentration at which peristaltic movement was reduced [5]: 300 nM
O=C(O[C@@H]1C[C@@H]2C[C@H]3C[C@H](C1)N2CC3=O)c1c[nH]c2ccccc12 [Dolasetron] | 1 µM | – | 1 µM | 1 µM | 3 µM | – | – | – | – | Lowest concentration indicating statistically significant % change to solvent control, LV dP/dtmax ([2]; Hartley, guinea pig): 1 µM; Lowest concentration indicating statistically significant % change to solvent control, QT ([2]; Hartley, guinea pig): 1 µM; Lowest concentration indicating statistically significant % change to solvent control, QTc ([2]; Hartley, guinea pig): 1 µM; Maximum % change in PR interval [2, 7]: 106.9%
C=C[C@H]1C[N@@]2CC[C@H]1C[C@H]2[C@H](O)c1ccnc2ccc(OC)cc12 [Quinine] | 1 µM | 1 µM | 1 µM | 3 µM | 3 µM | −77.3% | 1 µM | 1 µM | 21.577 [25] µM | Lowest concentration indicating statistically significant % change to solvent control, LVEDP [2, 6]: 30 µM
CN(CCOc1ccc(NS(C)(=O)=O)cc1)CCc1ccc(NS(C)(=O)=O)cc1 [Dofetilide] | 0.001 µM | – | 0.03 µM | 0.01 µM | – | – | 0.001 µM | 0.001 µM | – | Maximum % change in QT interval [2, 7]: 33.5%

Now from value to compound, other results behind:

Lowest concentration indicating statistically significant % change to solvent control, HR [2, 6] | Lowest concentration indicating statistically significant % change to solvent control, LV dP/dtmax [2, 6] | Lowest concentration indicating statistically significant % change to solvent control, LVPSP [2, 6] | Lowest concentration indicating statistically significant % change to solvent control, PR [2, 6] | Lowest concentration indicating statistically significant % change to solvent control, QRS [2, 6] | Maximum % change in LV dP/dt max [2, 7] | SMILES | Lowest concentration indicating statistically significant % change to solvent control, QT [2, 6] | Lowest concentration indicating statistically significant % change to solvent control, QTc [2, 6] | EfTPC (effective free therapeutic plasma concentration) [3] | further results
1 µM | 1 µM | 1 µM | 10 µM | 10 µM | −47.4% | Cc1nccn1CC1CCc2c(c3ccccc3n2C)C1=O (stereo not shown) [Ondansetron] | 1 µM | 1 µM | 1.023 [25] µM | Lowest concentration indicating statistically significant % change to solvent control, LVEDP [2, 6]: 1 µM
30 µM | 100 µM | 3 µM | 30 µM | 10 µM | – | COc1c(N2C[C@@H]3CCCN[C@@H]3C2)c(F)cc2c(=O)c(C(=O)O)cn(C3CC3)c12 [Moxifloxacin] | 3 µM | 3 µM | 10.960 [26] µM | Maximum % change in QT interval [2, 7]: 29.3%
– | – | – | – | – | −21.8% | O=C(O)COCCN1CCN([C@H](c2ccccc2)c2ccc(Cl)cc2)CC1 [Levocetirizine] | – | – | – | –
